# Experimental data published in patent publication US9597431B2, “Compositions and methods for promoting bone formation” (Warsaw Orthopedic, Inc., priority 2008, dated 2017).
# B1: RANKL: recombinant receptor activator for nuclear factor κ B ligand, mixed with Grafton DBM FLEX demineralized bone matrix implant (protein, UniProt O14788 140-317, looked up)
# Tumor necrosis factor ligand …: IRAEKAMVDGSWLDLAKRSKLEAQPFAHLTINATDIPSGSHKVSLSSWYHDRGWAKISNMTFSNGKLIVNQDGFYYLYANICFRHHETSGDLATEYLQLMVYVTKTSIKIPSSHTLMKGGSTKYWSGNSEFHFYSINVGGFFKLRSGEEISIEVSNPSLLDPDQDATYFGAFKVRDID
# Key:
# [1] = tested on: unilateral transverse femur fractures mice; details: osteoclast inhibitors; cited from earlier work
# [2] = tested on: three millimeter defects in femurs of athymic rats; assay: Critical defect model in rat femurs, new bone formation by MicroCT; format: in vivo; details: two micrograms recombinant RANKL mixed with 150 mg Grafton DBM FLEX vs Grafton DBM FLEX alone, three weeks
# Procedure: To test whether recombinant RANKL mixed with DBM may aid bone healing, a critical defect model was used in rat femurs. Three millimeter defects were created in femurs of athymic rats. The rats were divided into two groups, the bone defects from one group were implanted with 150 mg of Grafton® DBM FLEX (Osteotech, Eatontown, N.J.), the second group received Grafton® DBM FLEX mixed with two micrograms of recombinant RANKL. At three weeks, the rat femur defects were evaluated by MicroCT. […] Data was analyzed using paired student-t-test.
molecule,measurement,setting,value
NCCCC(O)(P(=O)(O)O)P(=O)(O)O [alendronate],removal of cartilage and remodeling of the fracture callus,[1],delayed
denosumab: osteoclast inhibitor,removal of cartilage and remodeling of the fracture callus,[1],delayed
B1,new bone formation compared to control group,[2],significantly (p<0.05) higher
